# Reference: US4973704A, “Pyrrolyl intermediates in the synthesis of pyrrole analogs of mevalonolactone and derivatives thereof” (Sandoz Pharm. Corp., priority 1989, dated 1990)
# Where two headings read alike, the source gives them in different places.
# Experiments:
# HMG-CoA reductase = target: T1, HMG-CoA reductase (Rattus norvegicus, UniProt P51639); assay: Test A. In Vitro Microsomal Assay of HMG-CoA Reductase Inhibition; format: biochemical
# T1 construct: from tissue; host or cells: microsomes (printed)
# T1 sequence (P51639 1-887): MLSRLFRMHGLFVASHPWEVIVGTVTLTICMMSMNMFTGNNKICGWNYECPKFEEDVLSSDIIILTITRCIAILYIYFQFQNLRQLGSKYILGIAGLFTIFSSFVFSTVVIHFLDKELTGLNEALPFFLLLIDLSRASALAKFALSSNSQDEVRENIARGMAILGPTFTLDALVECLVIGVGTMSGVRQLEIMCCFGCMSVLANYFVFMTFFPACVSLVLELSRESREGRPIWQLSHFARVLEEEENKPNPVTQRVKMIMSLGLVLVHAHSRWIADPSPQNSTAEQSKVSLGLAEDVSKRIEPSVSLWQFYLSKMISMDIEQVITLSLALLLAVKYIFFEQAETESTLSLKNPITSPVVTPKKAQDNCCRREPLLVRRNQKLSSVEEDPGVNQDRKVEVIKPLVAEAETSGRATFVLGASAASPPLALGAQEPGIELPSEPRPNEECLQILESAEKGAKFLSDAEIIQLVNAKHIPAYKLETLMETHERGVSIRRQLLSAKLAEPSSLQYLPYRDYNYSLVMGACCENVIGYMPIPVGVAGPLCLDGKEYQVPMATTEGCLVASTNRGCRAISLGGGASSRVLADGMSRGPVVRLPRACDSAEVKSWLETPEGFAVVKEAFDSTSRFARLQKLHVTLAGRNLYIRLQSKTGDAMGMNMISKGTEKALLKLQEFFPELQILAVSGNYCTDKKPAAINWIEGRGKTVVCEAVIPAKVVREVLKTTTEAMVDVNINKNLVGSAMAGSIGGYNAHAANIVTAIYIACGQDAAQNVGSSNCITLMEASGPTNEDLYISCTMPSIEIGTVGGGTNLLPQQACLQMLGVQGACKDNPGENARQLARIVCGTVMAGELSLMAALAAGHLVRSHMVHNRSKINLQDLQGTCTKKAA
# Description: Test A. In Vitro Microsomal Assay of HMG-CoA Reductase Inhibition:
# This test is carried out precisely as described in column 53 of U.S. Pat. No. 4,613,610 and on page 30 of World (PCT) Published Patent Application No. 84/02131, both of which are hereby incorporated by reference as if set forth herein in their entirety. The concentration of the test substance (compound of Formula I) in the assay system is 0.0005-2,000 μmolar. The obtained IC50 is the concentration of the test substance in the assay system observed or calculated to produce a 50% inhibition of HMG-CoA reductase activity.
# [1] = system: 3β-hydroxysterol synthesis; assay: Test B. In Vivo Cholesterol Biosynthesis Inhibition Test; details: Rattus norvegicus, po; rats, orally administered; read-out: ED50 (dose producing 50% inhibition of 3β-hydroxysterol synthesis)
# Description: Test B. In Vivo Cholesterol Biosynthesis Inhibition Test:
# In this test the rats are orally administered the test substance (compound of Formula I) at a dose of 0.1-200 mg/kg. body weight. The obtained ED50 is the dose of the test substance observed or calculated to produce a 50% inhibition of 3β-hydroxysterol synthesis.
# [2] = in vitro microsomal assay, read-out: IC50 (concentration producing 50% inhibition of HMG-CoA reductase activity)
Structure (SMILES),IC50 (HMG-CoA reductase; [2]),ED50 [1],IC50 (HMG-CoA reductase)
"CC(C)c1cc(-c2ccccc2)n(-c2ccc(F)cc2)c1/C=C/[C@@H](O)C[C@@H](O)CC(=O)O (relative stereo) [Example 2, Sodium (±)-erythro-(E)-3,5-dihydroxy-7-[1'-(4""-fluorophenyl)-3'-(1""-methylethyl)-5'-phenyl-1H-pyrrol-2'-yl]hept-6-enoate]",14 nM,0.53 mg/kg,
CC[C@H](C)C(=O)O[C@H]1CCC=C2C=C[C@H](C)[C@H](CC[C@@H]3C[C@@H](O)CC(=O)O3)[C@H]21 [Compactin],1100 nM,,
CC[C@H](C)C(=O)O[C@H]1C[C@@H](C)C=C2C=C[C@H](C)[C@H](CC[C@@H]3C[C@@H](O)CC(=O)O3)[C@H]21 [Mevinolin],,,720 nM
